In the NIST ThermoML archive (doi:10.1016/j.jct.2019.01.024):

Assay: mn = molality of the nth substance listed, in mol/kg
Conditions: 101 kPa, Liquid; for viscosity: Falling or rolling sphere viscometry; for speed of sound: Frequency=3 MHz, Single path-length method; for mass density: Vibrating tube method

NNC(=O)c1ccncc1 [isonicotinic acid hydrazide] + O
Conditions | mass density [kg/m3] | speed of sound [m/s] | viscosity [mPa·s]
293.15 K, m1 = 0.0255 | 999.11 | 1485.3 | 1.006
293.15 K, m1 = 0.0494 | 999.92 | 1486.9 | 1.012
293.15 K, m1 = 0.0754 | 1000.8 | 1488.6 | 1.018
293.15 K, m1 = 0.1 | 1001.64 | – | 1.024
293.15 K, m1 = 0.1253 | 1002.5 | 1491.8 | 1.03
293.15 K, m1 = 0.15 | 1003.35 | 1493.4 | 1.037
293.15 K, m1 = 0.2002 | 1005.07 | 1496.5 | 1.049
293.15 K, m1 = 0.2492 | 1006.75 | 1499.4 | 1.062
293.15 K, m1 = 0.3001 | 1008.5 | 1502.4 | 1.075
293.15 K, m1 = 0.3489 | 1010.18 | 1505.1 | 1.088
293.15 K, m1 = 0.4003 | 1011.96 | 1507.9 | 1.102
298.15 K, m1 = 0.0255 | 997.93 | 1498.6 | 0.8937
298.15 K, m1 = 0.0494 | 998.74 | 1500.2 | 0.8984
298.15 K, m1 = 0.0754 | 999.61 | 1501.9 | 0.9036
298.15 K, m1 = 0.1 | 1000.45 | – | 0.9086
298.15 K, m1 = 0.1253 | 1001.3 | 1505.1 | 0.9138
298.15 K, m1 = 0.15 | 1002.14 | 1506.6 | 0.9191
298.15 K, m1 = 0.2002 | 1003.84 | 1509.7 | 0.9298
298.15 K, m1 = 0.2492 | 1005.51 | 1512.6 | 0.9401
298.15 K, m1 = 0.3001 | 1007.25 | 1515.6 | 0.951
298.15 K, m1 = 0.3489 | 1008.91 | 1518.4 | 0.9616
298.15 K, m1 = 0.4003 | 1010.67 | 1521.3 | 0.9729
303.15 K, m1 = 0.0255 | 996.53 | 1510.1 | 0.8001
303.15 K, m1 = 0.0494 | 997.34 | 1511.6 | 0.804
303.15 K, m1 = 0.0754 | 998.21 | 1513.3 | 0.8084
303.15 K, m1 = 0.1 | 999.03 | – | 0.8125
303.15 K, m1 = 0.1253 | 999.88 | 1516.4 | 0.8169
303.15 K, m1 = 0.15 | 1000.71 | 1517.9 | 0.8213
303.15 K, m1 = 0.2002 | 1002.4 | 1521 | 0.8301
303.15 K, m1 = 0.2492 | 1004.05 | 1523.9 | 0.8389
303.15 K, m1 = 0.3001 | 1005.77 | 1526.9 | 0.8482
303.15 K, m1 = 0.3489 | 1007.42 | 1529.7 | 0.8571
303.15 K, m1 = 0.4003 | 1009.16 | 1532.6 | 0.8661
308.15 K, m1 = 0.0255 | 994.92 | 1521.4 | 0.7213
308.15 K, m1 = 0.0494 | 995.72 | 1522.9 | 0.7246
308.15 K, m1 = 0.0754 | 996.58 | 1524.5 | 0.7282
308.15 K, m1 = 0.1 | 997.4 | – | 0.7317
308.15 K, m1 = 0.1253 | 998.25 | 1527.6 | 0.7353
308.15 K, m1 = 0.15 | 999.08 | 1529.1 | 0.7389
308.15 K, m1 = 0.2002 | 1000.75 | 1532.2 | 0.7463
308.15 K, m1 = 0.2492 | 1002.39 | 1535.1 | 0.7537
308.15 K, m1 = 0.3001 | 1004.1 | 1538.1 | 0.7612
308.15 K, m1 = 0.3489 | 1005.74 | 1540.9 | 0.7687
308.15 K, m1 = 0.4003 | 1007.46 | 1543.8 | 0.7765
313.15 K, m1 = 0.0255 | 993.1 | 1528.4 | 0.6545
313.15 K, m1 = 0.0494 | 993.89 | 1529.8 | 0.6572
313.15 K, m1 = 0.0754 | 994.75 | 1531.4 | 0.6602
313.15 K, m1 = 0.1 | 995.57 | – | 0.6632
313.15 K, m1 = 0.1253 | 996.41 | 1534.4 | 0.6663
313.15 K, m1 = 0.15 | 997.23 | 1535.8 | 0.6693
313.15 K, m1 = 0.2002 | 998.9 | 1538.8 | 0.6756
313.15 K, m1 = 0.2492 | 1000.53 | 1541.7 | 0.6818
313.15 K, m1 = 0.3001 | 1002.22 | 1544.6 | 0.6882
313.15 K, m1 = 0.3489 | 1003.84 | 1547.3 | 0.6944
313.15 K, m1 = 0.4003 | 1005.55 | 1550.2 | 0.7007
318.15 K, m1 = 0.0255 | 991.08 | 1534.5 | 0.5987
318.15 K, m1 = 0.0494 | 991.87 | 1535.9 | 0.6009
318.15 K, m1 = 0.0754 | 992.73 | 1537.4 | 0.6034
318.15 K, m1 = 0.1 | 993.54 | – | 0.6058
318.15 K, m1 = 0.1253 | 994.38 | 1540.3 | 0.6084
318.15 K, m1 = 0.15 | 995.19 | 1541.7 | 0.611
318.15 K, m1 = 0.2002 | 996.85 | 1544.5 | 0.6163
318.15 K, m1 = 0.2492 | 998.46 | 1547.3 | 0.6215
318.15 K, m1 = 0.3001 | 1000.14 | 1550.2 | 0.6268
318.15 K, m1 = 0.3489 | 1001.75 | 1552.9 | 0.6321
318.15 K, m1 = 0.4003 | 1003.44 | 1555.7 | 0.6375

O [water] + NNC(=O)c1ccncc1
m2 = 0
Conditions | mass density [kg/m3] | speed of sound [m/s] | viscosity [mPa·s]
293.15 K | – | 1483.6 | 1.002
298.15 K | – | – | 0.8903
303.15 K | – | 1508.4 | 0.7973
308.15 K | 994.07 | – | 0.719
313.15 K | – | 1526.8 | 0.6526
318.15 K | – | 1533 | 0.5972
